SMILES strings stand for the structures. pIC50: −log10 of the molar value. Activity calls are given as the source filed them. The calls are words filed in the database; no cut-off is given here.

The subject of data set [1] is 697. In words: Cytotoxicity against human 697 cells after 48 hrs by CellTiter 96 aqueous one solution assay. Conditions: Homo sapiens, 697, 48 h. Format: cell-based.
The nature of data set [2]: Toxicity in C57BL/6 mouse assessed as effect on grooming up to 50 mg/kg, ip administered for 5 days/week for two cycles. Format: organism-based. Conditions: in vivo, 120 h.
Data set [3] concerns Mus musculus. In words: In vivo inhibition of HDAC6 in C57BL/6 mouse assessed as increase in acetylated tubulin level in spleen cytosolic protein extract at 30 mg/kg, ip measured after 24 hrs by ELISA. Format: functional, organism-based. On the technique in general: In an ELISA, binding on a coated surface is turned into a signal by an enzyme label.
The nature of data set [4]: Toxicity in C57BL/6 mouse assessed as induction of leukopenia up to 50 mg/kg, ip administered for 5 days/week for two cycles. Format: organism-based. The conditions noted are these: in vivo, 120 h.
For data set [5], the target named is T1, Protein deacetylase HDAC6 (Mus musculus) (UniProt Q9Z2V5).
T1 sequence (whole entry): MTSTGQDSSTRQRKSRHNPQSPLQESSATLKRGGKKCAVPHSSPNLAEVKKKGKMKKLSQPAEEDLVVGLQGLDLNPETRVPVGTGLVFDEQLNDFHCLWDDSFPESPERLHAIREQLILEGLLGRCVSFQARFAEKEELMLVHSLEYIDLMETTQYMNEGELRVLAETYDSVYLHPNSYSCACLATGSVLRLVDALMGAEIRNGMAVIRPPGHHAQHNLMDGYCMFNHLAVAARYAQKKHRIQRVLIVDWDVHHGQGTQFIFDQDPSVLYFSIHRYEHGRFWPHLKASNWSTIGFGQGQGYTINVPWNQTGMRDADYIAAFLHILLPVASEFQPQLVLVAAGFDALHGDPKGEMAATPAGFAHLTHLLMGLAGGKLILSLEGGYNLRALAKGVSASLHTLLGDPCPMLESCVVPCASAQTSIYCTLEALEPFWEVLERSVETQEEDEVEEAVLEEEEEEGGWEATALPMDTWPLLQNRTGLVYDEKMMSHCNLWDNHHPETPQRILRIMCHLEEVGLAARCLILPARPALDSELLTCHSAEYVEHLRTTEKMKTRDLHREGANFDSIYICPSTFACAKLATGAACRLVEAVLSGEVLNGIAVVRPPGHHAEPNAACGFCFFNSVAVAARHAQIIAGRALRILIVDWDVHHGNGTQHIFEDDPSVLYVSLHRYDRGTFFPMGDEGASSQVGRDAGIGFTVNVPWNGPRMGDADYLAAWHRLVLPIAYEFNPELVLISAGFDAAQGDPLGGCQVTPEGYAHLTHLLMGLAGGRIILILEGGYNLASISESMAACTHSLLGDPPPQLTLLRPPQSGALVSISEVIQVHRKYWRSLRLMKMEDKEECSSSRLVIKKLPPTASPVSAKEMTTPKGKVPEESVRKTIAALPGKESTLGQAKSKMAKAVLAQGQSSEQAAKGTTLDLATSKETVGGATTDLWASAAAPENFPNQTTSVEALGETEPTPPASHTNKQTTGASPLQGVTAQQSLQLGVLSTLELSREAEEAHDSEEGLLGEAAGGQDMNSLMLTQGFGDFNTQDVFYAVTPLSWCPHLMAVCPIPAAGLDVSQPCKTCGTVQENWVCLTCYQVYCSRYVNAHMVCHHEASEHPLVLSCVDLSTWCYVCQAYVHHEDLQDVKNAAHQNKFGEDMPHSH
Description: Inhibition of HDAC6 in C57BL/6 mouse regulatory T cells assessed as increase in Treg-mediated suppression of anti-CD3 induced CD4+ cell division at 500 nM after 72 hrs in presence mitomycin-treated APC by CFSE dye based flow cytometric assay relative to control.

Data set [6] in a line: Toxicity in C57BL/6 mouse assessed as effect on body weight at 30 mg/kg, ip administered for 5 days/week for two cycles and measured every other day relative to control. Format: organism-based. Conditions: in vivo, 120 h.
Data set [7] in a line: Toxicity in C57BL/6 mouse assessed as effect on WBC level at 10 mg/kg, ip administered for 5 days/week for two cycles and measured 60 mins post last dose by beckman coulter counting method relative to control. Format: organism-based. The conditions noted are these: in vivo, 1 h.
Data set [8] is described as follows: Inhibition of C57BL/6 mouse effector T cells proliferation at 500 nM after 72 hrs in absence of regulatory T cells by CFSE dye based flow cytometric assay relative to control. (In general: A flow cytometer gives signals particle by particle.)
A short description of data set [9]: Stability in rat liver S9 fraction assessed as parent compound remaining at 5 uM after 90 mins in presence of NADPH by LC-MS/MS analysis. Format: ADME, subcellular. Conditions: read-out: Stability.
Data set [10] can be described thus: Toxicity in C57BL/6 mouse assessed as effect on stool up to 50 mg/kg, ip administered for 5 days/week for two cycles and measured daily starting from day 1. Format: organism-based. Conditions: in vivo, 120 h.
The target of data set [11] is Cytochrome P450 3A4 (Homo sapiens, UniProt P08684).
Description: Inhibition of CYP3A4 in human liver microsomes using testosterone as substrate
A short description of data set [12]: Toxicity in C57BL/6 mouse assessed as effect on spasms up to 50 mg/kg, ip administered for 5 days/week for two cycles and measured daily starting from day 1. Format: organism-based. Conditions: in vivo, 120 h.
The nature of data set [13]: Toxicity in C57BL/6 mouse assessed as induction of kyphosis up to 50 mg/kg, ip administered for 5 days/week for two cycles and measured daily starting from day 1. Format: organism-based. The conditions noted are these: in vivo, 120 h.
The nature of data set [14]: Selectivity ratio of IC50 for N-terminal GST-tagged human HDAC7 (518 to end residues) expressed in baculovirus infected sf9 insect cells to IC50 for human N-terminal GST-tagged HDAC6 expressed in baculovirus infected sf9 insect cells.
The nature of data set [15]: Toxicity in C57BL/6 mouse assessed as effect on body weight at 10 mg/kg, ip administered for 5 days/week for two cycles and measured every other day relative to control. Format: organism-based. Conditions: in vivo, 120 h.
The nature of data set [16]: Toxicity in C57BL/6 mouse assessed as effect on social behavior up to 50 mg/kg, ip administered for 5 days/week for two cycles. Format: organism-based. Conditions: in vivo, 120 h.
The nature of data set [17]: Selectivity ratio of IC50 for human HDAC4 expressed in baculovirus infected sf9 insect cells to IC50 for human N-terminal GST-tagged HDAC6 expressed in baculovirus infected sf9 insect cells.
Data set [18] can be described thus: Total AUC in CD-1 mouse at 5.2 mg/kg, po measured within 6 hrs by LC-MS/MS analysis. Set-up: dose 5.2 mg/kg, route oral, time AUCmax. The conditions noted are these: in vivo. Format: ADME, organism-based.

Chain of Cytochrome P450 3A4 (P08684 whole entry): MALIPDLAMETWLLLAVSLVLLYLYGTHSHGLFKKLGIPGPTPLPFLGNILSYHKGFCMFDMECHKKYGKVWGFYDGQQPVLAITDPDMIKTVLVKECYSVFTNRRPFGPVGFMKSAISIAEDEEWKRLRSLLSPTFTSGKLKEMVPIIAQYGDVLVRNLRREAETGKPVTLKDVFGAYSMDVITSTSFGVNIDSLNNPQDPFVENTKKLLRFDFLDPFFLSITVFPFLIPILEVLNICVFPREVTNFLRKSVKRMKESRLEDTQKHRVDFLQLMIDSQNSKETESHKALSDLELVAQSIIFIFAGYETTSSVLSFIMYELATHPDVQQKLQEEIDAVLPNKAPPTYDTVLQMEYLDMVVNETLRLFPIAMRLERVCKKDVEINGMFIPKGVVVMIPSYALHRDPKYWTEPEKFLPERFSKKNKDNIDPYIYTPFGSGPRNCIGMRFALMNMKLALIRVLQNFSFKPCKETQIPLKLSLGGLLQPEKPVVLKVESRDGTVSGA

Turning to `Cn1c(Sc2ccc(C(=O)NO)cc2)nnc1-c1cccs1`, the pIC50 (usually the negative decadic logarithm of the IC50, by convention in mol/L) in data set [1] is less than 6.00; in data set [11], 4.58. In addition, the Activity result in data set [2] is on record as “Non-Toxic”; in data set [4], “Toxic”; in [6] it was 3.9%; in data set [7], 1%; in data set [10], “Non-Toxic”; in [12], “Non-Toxic”. Further, the Activity result in data set [13] was “Non-Toxic”; in data set [15], 2.8%; in data set [16], “Non-Toxic”. Further, the inhibition (commonly the relative decrease from the control value, in per cent) in data set [3] is “Active”. Moreover, the fold change (FC) in data set [5] was more than 1.5. Further, the inhibition at 72 h, 0.5 µM in data set [8] is less than 0.5%. In [9], the remaining at […], 5 µM was 82%. In addition, the “Ratio IC50” value is on record as 99 in [14] and 304 in data set [17]. Moreover, the AUC (commonly concentration integrated over time) at 6 h in data set [18] was found to be 123 ng·h/mL.

These data come from ChEMBL document CHEMBL4414648, “Novel Benzohydroxamate-Based Potent and Selective Histone Deacetylase 6 (HDAC6) Inhibitors Bearing a Pentaheterocyclic Scaffold: Design, Synthesis, and Biological Evaluation” (J Med Chem, 2019).
